Key:
[1] = system: Enterobacter gergoviae ATCC 33028; experiment: Liquid broth assay (MIC and checkerboard) against Enterobacter gergoviae; format: cell-based; details: Pluralibacter gergoviae, ATCC33028, component by itself, 30° C., 24 hours, OD600, <25% growth vs control, read-out: minimal inhibitory concentration (MIC)
Source text: (§1) Naturally derived antimicrobial systems were made, as shown below by combining the beta carboline alkaloid and phenolic acid. Two pools were set up and each pool contained 1 organism. The strains involved were Enterobacter gergoviae ATCC 33028 of the family Pluralibacter gergoviae, a Gram-negative and Aspergillus brasiliensis ATCC 16404. The FIC test range was 16 times greater than the projected MIC for each sample.
(§2) The differing behaviors of inhibitory antimicrobials in isolation and mixtures have been widely explored using the concept of the Fractional Concentration and Fractional Inhibitory Concentration (FIC). See for instance JRW Lambert and R Lambert, J. Appl. Microbiol 95, 734 (2003); T. Jadavji, CG Prober and R Cheung, Antibacterial Agents and Chemotherapy 26, 91 (1984), and WO 2004/006876. MIC is the minimum inhibitory concentration a component prevents visible growth of a microbe. The FC and FIC parameters can be defined as follows: […]
(§3) Liquid broth assays (MIC and checkerboard) were conducted to identify the minimum concentration(s) of individual and binary combinations of natural preservation materials. […] Each of the two-preservation chemical/broth mixes was then combined in a third 96 well plate at varying concentrations and then inoculated with 1-5x106 microorganisms and incubated at 30° C. for 24 hours, after which optical densities at OD600 nm were measured.

[2] = system: Aspergillus brasiliensis ATCC 16404; experiment: Liquid broth assay (MIC and checkerboard) against Aspergillus brasiliensis; format: cell-based; details: ATCC16404, component by itself, 30° C., 24 hours, OD600, <25% growth vs control
Source text: as §1, §2, §3

COc1cc(C(=O)O)cc(OC)c1O [Syringic Acid, 4-Hydroxy-3,5-dimethoxybenzoic acid] showed an MIC [1] of over 50 mg/mL and an MIC [2] of over 50 mg/mL.

Reference: patent publication US20250099357A1, “ANT[…] WITH BETA CARBOLINE ALKALOID AND PHENOLIC ACID AND CO[…]” (Conopco, Inc., d/b/a UNILEVER, priority 2021, published 2025)
